In US20160264593A1 (priority 2013, published 2016):
Where two headings read alike, the source gives them in different places.

Assay: Pharmacokinetic study of 157 (and metabolite endothal) in SD rats, iv and po; plasma, liver, brain
Assay type: in vivo
Conditions: for Tmax: read-out: Tmax; for MRT last: read-out: MRT (0-t); for half-life: read-out: T1/2 (converted); for concentration at 2 h / 157 brain concentration: 2 hr
Procedure: The blood, liver and brain tissue samples were collected at predetermined times from rats. […] Compound were diluted shortly before use in 4% sodium bicarbonate for sterile injection (this is the standard pediatric solution of NaHCO3 with a pH of about 8.5).
Compound 153 was freshly prepared by diluting the drugs shortly before use in 4% sodium bicarbonate for sterile injection (this is the standard pediatric solution of NaHCO3 with a pH of about 8.5). The final concentrations of 153 solutions were 0.25 mg/mL. The 153 solutions were administered via iv or po route at dose volume of 5 ml/kg according to the latest body weight. Compound 157 was freshly prepared by diluting the drugs shortly before use in 4% sodium bicarbonate for sterile injection (this is the standard pediatric solution of NaHCO3 with a pH of about 8.5). The final concentrations of […] solutions were 0.3 mg/mL. The 157 solutions were administered via iv or po route at dose volume of 5 ml/kg according to the latest body weight.
Twelve (12) female SD rats per group were dosed by iv with 153 or 157. The rats were fasted overnight prior to dosing, with free access to water. Foods were withheld for 2 hours post-dose. Blood, liver and brain tissue samples in two animals each group were collected at each time point, within 10% of the scheduled time for each time point. Two extra animals were used for analytic method development.
Blood (>0.3 mL) were collected via aorta abdominalis in anaesthetic animals into tubes containing heparin at 15 min, 1, 2, 6, 10 and 24 hours after iv administration. Liver and brain tissues were collected immediately after animal death. The liver and brain tissues were excised and rinsed with cold saline to avoid blood residual. Upon collection, each sample was placed on ice and the blood samples were subsequently centrifuged (4° C., 11000 rpm, 5 min) to separate plasma. The obtained plasma, liver and brain tissue samples were stored at −70° C. until LC-MS/MS analysis.
Two (2) female SD rats per group were dosed by po with 153 or 157. The rats were fasted overnight prior to dosing, with free access to water. Foods were withheld for 2 hours post-dose. Blood samples (>0.3 mL) were collected via aorta abdominalis in anaesthetic animals into tubes containing heparin at 30 min, 1, 2, 6, 10 and 24 hours after po administration.
To each sample, 30 μL IS-D (for blank samples, 20 μL acetonitrile:water (1:1) was added) and 300 μl acetonitrile was added. The sample mixture was vortexed for approximately 3 min. After centrifugation at 10000 rpm for 5 min at 4° C., 100 μL of the upper layer was transferred to a new tube and added 200 μL 0.4% formic acid in water (pH6.0). The mixture was vortexed for approximately 3 min before injected onto the LC/MS/MS system for analysis.
On the day of the assay, the frozen liver and brain samples were thawed unassisted at room temperature. An about 200 mg weighed sample of each thawed tissue was placed into a plastic tube with water (0.6 mL) to facilitate homogenization. Tissue processing was conducted using a homogenizer for approximately 1 min, 100 μl homogenate was transferred into a fresh Eppendorf tube. To each tube, 50 μL IS-D was added and mixed. Then 500 μl acetonitrile was added and the sample mixture was vortexed for approximately 3 min. After centrifugation at 10000 rpm for 5 min at 4° C., 100 μL of the upper layer was transferred to a new tube and evaporate the supernatant to dryness at 35° C. Reconstitute the residue with 200 μL of 0.4% formic acid in water (pH 6.0), and vortex for 3 min, submit for LC-MS/MS analysis.
Frozen unknown plasma samples were completely thawed at room temperature and vortexed thoroughly. With a pipette, 50 μL of plasma was transferred into a 2.0 mL Eppendorf tube. 50 μL of 0.1N HCl and 800 μL ethyl acetate were added into each sample. The sample mixture was vortexed for approximately 3 min.

[1] = female, Sprague-Dawley (SD), rat, in vivo, iv, 1.5 mg/kg, 157 in Brain, iv 1.5 mg/kg, Mean
[2] = female, Sprague-Dawley (SD), rat, in vivo, iv, 1.5 mg/kg, 157 in Brain, iv 1.5 mg/kg, rat 1
[3] = female, Sprague-Dawley (SD), rat, in vivo, iv, 1.5 mg/kg, 157 in Brain, iv 1.5 mg/kg, rat 2
[4] = female, Sprague-Dawley (SD), rat, in vivo, iv, 1.5 mg/kg, 157 in Liver, iv 1.5 mg/kg, Mean
[5] = female, Sprague-Dawley (SD), rat, in vivo, iv, 1.5 mg/kg, 157 in Liver, iv 1.5 mg/kg, rat 1
[6] = female, Sprague-Dawley (SD), rat, in vivo, iv, 1.5 mg/kg, 157 in Liver, iv 1.5 mg/kg, rat 2
[7] = female, Sprague-Dawley (SD), rat, in vivo, iv, 1.5 mg/kg, iv 1.5 mg/kg, Mean, read-out: 157 plasma concentration
[8] = female, Sprague-Dawley (SD), rat, in vivo, iv, 1.5 mg/kg, iv 1.5 mg/kg, Rat 1, read-out: 157 liver concentration
[9] = female, Sprague-Dawley (SD), rat, in vivo, iv, 1.5 mg/kg, iv 1.5 mg/kg, Rat 1, read-out: 157 plasma concentration
[10] = female, Sprague-Dawley (SD), rat, in vivo, iv, 1.5 mg/kg, iv 1.5 mg/kg, Rat 2, read-out: 157 liver concentration
[11] = female, Sprague-Dawley (SD), rat, in vivo, iv, 1.5 mg/kg, iv 1.5 mg/kg, Rat 2, read-out: 157 plasma concentration
[12] = female, Sprague-Dawley (SD), rat, in vivo, po, 1.5 mg/kg, 157 in plasma, PO 1.5 mg/kg, rat 2
[13] = female, Sprague-Dawley (SD), rat, in vivo, po, 1.5 mg/kg, PO 1.5 mg/kg, Mean, read-out: 157 plasma concentration
[14] = female, Sprague-Dawley (SD), rat, in vivo, po, 1.5 mg/kg, PO 1.5 mg/kg, Rat 1, read-out: 157 plasma concentration
[15] = female, Sprague-Dawley (SD), rat, in vivo, po, 1.5 mg/kg, PO 1.5 mg/kg, Rat 2, read-out: 157 plasma concentration

CCCCCCCOC(=O)C1C2CCC(O2)C1C(=O)N1CCN(C)CC1 (centres unmarked) [Compound 157, 3-(4-Methylpiperazine-1-carbonyl)-7-oxa-bicyclo[2,2,1]heptane-2-carboxylic acid heptyl ester]
concentration at 1 h (female, SD, rat, in vivo, iv, 1.5 mg/kg, iv 1.5 mg/kg, Rat 2, read-out: 157 liver concentration): 17.6 ng/g | AUC (female, SD, rat, in vivo, po, 1.5 mg/kg, 157 po 1.5 mg/kg, read-out: AUC of 157 in plasma): 3.2 ng·h/mL | Cmax (female, SD, rat, in vivo, po, 1.5 mg/kg, 157 po 1.5 mg/kg, read-out: Cmax of 157 in plasma): 6.14 ng/mL | AUC(0-t) (female, SD, rat, in vivo, 157 iv 1.5 mg/kg, read-out: AUClast of 157 in plasma): 47.2 ng·h/mL | bioavailability (female, SD, rat, in vivo, 157 po vs iv 1.5 mg/kg, read-out: BA (bioavailability) of 157): 6.98% | Tmax (female, Sprague-Dawley (SD), in vivo, 157 in plasma, PO 1.5 mg/kg, rat 2): 30 min | Cmax (female, Sprague-Dawley (SD), rat, in vivo, iv, 1.5 mg/kg, 157 in Brain, iv 1.5 mg/kg, Mean, read-out: Cmax): 60 ng/g | MRT last [1]: 18.8 min | half-life [1]: 9.72 min | Cmax (female, Sprague-Dawley (SD), rat, in vivo, iv, 1.5 mg/kg, 157 in Brain, iv 1.5 mg/kg, rat 1, read-out: Cmax): 60 ng/g | MRT last [2]: 18.3 min | half-life [2]: 9.18 min | Cmax (female, Sprague-Dawley (SD), rat, in vivo, iv, 1.5 mg/kg, 157 in Brain, iv 1.5 mg/kg, rat 2, read-out: Cmax): 60 ng/g | MRT last [3]: 19.4 min | half-life [3]: 10.2 min | Cmax (female, Sprague-Dawley (SD), rat, in vivo, iv, 1.5 mg/kg, 157 in Liver, iv 1.5 mg/kg, Mean, read-out: Cmax): 297 ng/g | MRT last [4]: 35.3 min | half-life [4]: 48.8 min | Cmax (female, Sprague-Dawley (SD), rat, in vivo, iv, 1.5 mg/kg, 157 in Liver, iv 1.5 mg/kg, rat 1, read-out: Cmax): 337 ng/g | MRT last [5]: 31.9 min | half-life [5]: 27.3 min | Cmax (female, Sprague-Dawley (SD), rat, in vivo, iv, 1.5 mg/kg, 157 in Liver, iv 1.5 mg/kg, rat 2, read-out: Cmax): 257 ng/g | MRT last [6]: 38.8 min | half-life [6]: 70.2 min | concentration at 0.25 h [7]: 115 ng/mL | concentration at 0.25 h [8]: 337 ng/g | concentration at 0.25 h [9]: 116 ng/mL | concentration at 0.25 h [10]: 257 ng/g | concentration at 0.25 h [11]: 114 ng/mL | concentration at 1 h [7]: 3.12 ng/mL | concentration at 1 h [9]: 2.67 ng/mL | concentration at 1 h [11]: 3.57 ng/mL | concentration at 2 h (female, Sprague-Dawley (SD), rat, in vivo, iv, 1.5 mg/kg, iv 1.5 mg/kg, Mean, read-out: 157 liver concentration): 8.06 ng/g | concentration at 2 h [7]: 0.524 ng/mL | concentration at 2 h [8]: 6.4 ng/g | concentration at 2 h [9]: 0.491 ng/mL | concentration at 2 h [10]: 9.72 ng/g | concentration at 2 h [11]: 0.556 ng/mL | AUC(0-inf) [12]: 3 ng·h/mL | AUC (female, Sprague-Dawley (SD), rat, in vivo, po, 1.5 mg/kg, 157 in plasma, PO 1.5 mg/kg, rat 2, read-out: AUC): 3 ng·h/mL | Cmax (female, Sprague-Dawley (SD), rat, in vivo, po, 1.5 mg/kg, 157 in plasma, PO 1.5 mg/kg, rat 2, read-out: Cmax): 6.35 ng/mL | MRT last [12]: 54.2 min | half-life [12]: 22.2 min | concentration at 0.5 h (female, Sprague-Dawley (SD), rat, in vivo, po, 1.5 mg/kg, PO 1.5 mg/kg, Mean): 6.14 ng/mL | concentration at 0.5 h (female, Sprague-Dawley (SD), rat, in vivo, po, 1.5 mg/kg, PO 1.5 mg/kg, Rat 1): 5.92 ng/mL | concentration at 0.5 h (female, Sprague-Dawley (SD), rat, in vivo, po, 1.5 mg/kg, PO 1.5 mg/kg, Rat 2): 6.35 ng/mL | concentration at 1 h [13]: 1.37 ng/mL | concentration at 1 h [14]: 1.48 ng/mL | concentration at 1 h [15]: 1.26 ng/mL | concentration at 2 h [13]: 0.249 ng/mL | concentration at 2 h [14]: 0.303 ng/mL | concentration at 2 h [15]: 0.194 ng/mL | Tmax (female, Sprague-Dawley (SD), rat, in vivo, 157 in Liver, iv 1.5 mg/kg, Mean): 15 min | 157 brain concentration (iv 1.5 mg/kg, Rat 1): BLQ | 157 brain concentration (iv 1.5 mg/kg, Rat 2): BLQ | 157 liver concentration (iv 1.5 mg/kg, 10 hr, Rat 2): BLQ
